Data: ChEMBL document CHEMBL3286191, “Exploring structural motifs necessary for substrate binding in the active site of Escherichia coli pantothenate kinase” (Bioorg Med Chem, 2014)
Active and inactive are the calls of the source. The rule behind the calls is not given here.

What was measured:
[1] = tested on: Escherichia coli; assay: Ratio of kcat to Km for purified Escherichia coli pantothenate kinase by spectrophotometry
[2] = tested on: Escherichia coli; assay: Activity of purified Escherichia coli pantothenate kinase by spectrophotometry
[3] = tested on: Escherichia coli; assay: Activity of purified Escherichia coli pantothenate kinase up to 1 uM by spectrophotometry
[4] = tested on: Escherichia coli; assay: Inhibition of purified Escherichia coli pantothenate kinase using pantothenate as substrate at 0.625 to 20 mM by spectrophotometry

Structure (SMILES)	kcat/Km [1] [M⁻¹ s⁻¹]	Km [2] [µM]	kcat [2] [s⁻¹]	Activity [3]	inhibition [4]
CC(C)(CO)[C@@H](O)C(=O)NCCC(=O)NCc1ccncc1	7000	130	0.94	–	–
CC(C)(CO)[C@@H](O)C(=O)NCCC(=O)NCCCc1ccccc1	35000	32	1.13	–	–
CC(C)(CO)[C@@H](O)C(=O)NCCCOc1cc(Cl)ccc1Oc1ccc(Cl)cc1Cl	–	–	–	inactive	inactive
CC(C)(CO)[C@@H](O)C(=O)NCCCNC(=N)Nc1ccc(Cl)cc1	–	–	–	inactive	inactive
CCCc1cn(CCCNC(=O)[C@H](O)C(C)(C)CO)nn1	500	1000	0.49	–	–
CC(C)(CO)[C@@H](O)C(=O)NCCC(=O)N1Cc2ccccc2C1	1900	200	0.45	–	–
CC(C)(CO)[C@@H](O)C(=O)NCCC(=O)Nc1ccccc1	24000	43	1.02	–	–
Cc1cccnc1NC(=O)CCNC(=O)[C@H](O)C(C)(C)CO	20000	39	0.78	–	–
CC(C)(CO)[C@@H](O)C(=O)NCCC(=O)NCCN1CCNCC1	300	> 1000	0.75	–	–
CC(C)(CO)[C@@H](O)C(=O)NCCC(=O)Nc1ccncn1	3200	450	1.44	–	–
CC(C)(CO)[C@@H](O)C(=O)NCCC(=O)NCCCn1ccnc1	21000	22	0.46	–	–
CC(C)(CO)[C@@H](O)C(=O)NCCC(=O)NCc1ccccn1	20000	50	1.02	–	–
C=CCC[C@](C)(CO)[C@@H](O)C(=O)NCCC(=O)NCCCCC	–	–	–	inactive	inactive
CC(C)(CO)[C@@H](O)C(=O)NCCC(=O)NCCc1ccccn1	11000	110	1.15	–	–
CC(C)(CO)[C@@H](O)C(=O)NCCC(=O)NCc1cccnc1	38000	33	1.24	–	–
CC(C)(CO)[C@@H](O)C(=O)NCCC(=O)NCCCN1CCOCC1	2900	350	1.03	–	–
CC(C)(CO)[C@@H](O)C(=O)NCCC(=O)N1CCc2ccccc21	400	400	0.18	–	–
CN(C)CCCNCCCNC(=O)CCNC(=O)[C@H](O)C(C)(C)CO	–	–	–	inactive	inactive
CCCCCNC(=O)CCNC(=O)[C@H](O)C(CC)(CC)CO	200	1200	0.28	–	–
CC(C)(CO)[C@@H](O)C(=O)NCCC(=O)Nc1cc(Cl)ccc1Oc1ccc(Cl)cc1Cl	–	–	–	inactive	inactive
CC(C)(CO)[C@@H](O)C(=O)NCCC(=O)NCc1ccccc1	17000	67	1.15	–	–
CC(C)(CO)[C@@H](O)C(=O)NCCC(=O)NCC1CCNCC1	500	> 1000	1.19	–	–

Further lines, results first:

kcat/Km [1] [M⁻¹ s⁻¹]	Km [2] [µM]	kcat [2] [s⁻¹]	Activity [3]	inhibition [4]	Structure (SMILES)
1500	590	0.89	–	–	C=CC[C@](C)(CO)[C@@H](O)C(=O)NCCC(=O)NCCCCC
100	1200	0.13	–	–	CCCCCNC(=O)CNCCCNC(=O)[C@H](O)C(C)(C)CO
–	–	–	inactive	inactive	CC(C)(CO)[C@@H](O)C(=O)NCCNC(=N)N
9000	110	1.04	–	–	C#CC[C@](C)(CO)[C@@H](O)C(=O)NCCC(=O)NCCCCC
26000	36	0.93	–	–	CCCCCNC(=O)CCNC(=O)[C@H](O)C(C)(C)CO
5100	230	1.17	–	–	CCCCCNC(=O)CCNC(=O)[C@H](O)[C@](C)(CC)CO
17000	60	1.03	–	–	CC(C)(CO)[C@@H](O)C(=O)NCCC(=O)NCCS
10000	120	1.12	–	–	CCCCCNC(=O)CNC(=O)CCNC(=O)[C@H](O)C(C)(C)CO
5100	190	0.96	–	–	CCCCCn1cc(CNC(=O)[C@H](O)C(C)(C)CO)nn1
–	–	–	inactive	inactive	CCCCCNC(=O)CCNC(=O)[C@H](O)[C@@](C)(CO)CCCO
50000	21	1.07	–	–	CC(C)(CO)[C@@H](O)C(=O)NCCC(=O)O
4500	240	1.09	–	–	CCCC(=O)NCCNC(=O)CCNC(=O)[C@H](O)C(C)(C)CO
–	–	–	inactive	inactive	CN(C)CCCNC(=O)CCNC(=O)[C@H](O)C(C)(C)CO
–	–	–	inactive	inactive	CC(C)(CO)[C@@H](O)C(=O)NCCS(=O)(=O)O
300	700	0.23	–	–	CCCCCNC(CNC(=O)[C@H](O)C(C)(C)CO)C(=O)O (some centres not stated)
